Data from EP2229935A1, “Peptide derivatives or pharmaceutically acceptable salts thereof, method for producing the same, use of said derivatives and pharmaceutical composition” (Nebolsin, Vladimir Evgenievich, priority 1997, dated 1999).
Like-named read-outs stand apart in the source and are kept apart here. Marks after values point to notes of the source that are not given here.

How the values were obtained:
mongrel male rats = conditions: po, 96 h;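 also: serum drawn 18 h after the final dose from rats deprived of food over that interval, groups of 10 animals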
Method: Hypolipidemic activity of the compounds of general formula (I) was studied on the model of experimental hyperlipidemia [Arichi H., Kumura H.O. Effects of stibens compounds of roots of polygonum cuspidatium on the lipid metabolism. […] Each group of animals included 10 rats. […] Blood samples were taken for analysis 18 hours after the last administration of the test substances during which period food was taken away from rats.
The following parameters were determined: total cholesterol (total CS); high density lipoprotein cholesterol (HDL-CS); low density lipoprotein cholesterol and very low density lipoprotein cholesterol (LDL-CS and VLDL-CS); triglycerides (TG). Blood serum CS level was determined according to the Ilk method [Biochemical examination in the clinic. […] HDL-CS level was measured in supernatant following heparine-manganese precipitation of LDL+VLDL [Titov V.N., Brener E.D., Khaltaiev N.G., Zadoya A.A., Tvorogova M.G. A method and diagnostic significance of cholesterol level study in α-lipoproteins. […] LDL-CS level determination was carried out by calculation according to the formula presented in the work Friedwald W.T. [Friedwald W.T., Levy K.J., Leus R. Fat transport in lipoproteins: an integrated approach to mechanism and disorders.
To assess the effect of the test compounds on the ratio of atherogenic and antiatherogenic blood serum lipoproteins, cholesterol index (Kcs) was calculated according to the formula presented in the work [Klimov A.N., Nikulcheva N.G. Lipoproteins, dylipoproteinemias and atherosclerosis.
Blood serum TG level was determined using the conventional method [Friedwald W.T., Levy R.I., Fredrickson D.S. Estimation of concentration of low-density lipoprotein cholesterol in plasma, without use of preparative ultracentrifuge.

[1] = test system: Lewis pulmonary carcinoma (LLC); experiment: LLC metastasizing: compound III substance versus tabletted dosage form; assay type: in vivo, C57BL/6 female mice; conditions: C57BL/6 mice with LLC; oral 500 µg/kg (active basis) daily day 1-10; 24 days
Method: To estimate therapeutic efficacy of compound III tabletted dosage form (0.2 g tablets 6 mm in diameter comprising 17 mg substance) studies were carried out on the model of spontaneous LLC carcinoma metastasizing.
Experiments were carried out on C57BL/6 female mice weighing 20-25 g. Experimental groups included 8 animals and the control group 11 mice. Substance and dosage form of compound III were administered orally at a dose 500 µg/kg (at a rate per an active basis) daily from day 1 till day 10 of experiment. Experiment lasted for 24 days.

superoxide anion-radical = experiment: Superoxide anion-radical formation in the xantine-xantine oxidase system (chemiluminescence); assay type: biochemical
Method: Effect of the compounds of general formula (I) on change in chemiluminescence (CL) determined by hydroxyl radical ( OH) and superoxide anion-radical (O2-), in the model chemical and enzymatic systems.
5 to 10 ml of the test compounds dissolved in water were at needed concentration introduced into a cuvette. A total sample volume was 0.5 ml. • B. Superoxide anion-radical in the mixture of xantine and xantine oxidase [Afanas'ev I., Suslova T., Cheremisina Z. et al. Study of antioxidant properties of metal aspartates.
Incubation medium comprised 5 mM KH2PO4; 0.2 IU/ml xantine oxidase. Xantine at concentration 1 mM was introduced into sample through a dispencer. Luceginine (0.2 mM) was used in this system as luminiscence sensitizer.
CL signal indication was performed by its integration every 10 seconds for 5 minutes. CL flash recording duration after mixing ingredients, depended on a particular process kinetics. For each system, CL light sum (mV) was determined in the control samples without preparations (I-) and in samples comprising respective concentrations of preparations (I+). To estimate CL inhibition (activation) degree, the I+/I- ratio (in relative units) was found in the studied systems.
AOF formation and effect of the test compounds on this process were recorded on the Luminometer-1251 instrument (LKB, Sweden).
Because of such "distension" of the kinetic curve, chemiluminescence light sum was recorded during the first 3-5 minutes which reflected a total amount of light quantums produced in the system till achieving the maximum CL intensity values.

Structure (SMILES): O=C(O)CCCC(=O)NCCc1c[nH]cn1 [compound III, N-GLUTARYLHISTAMINE]
- HDL-CS (mongrel male rats; 0.05 mg/kg): 46,1±2,8**^A
- Kcs (mongrel male rats; 0.05 mg/kg): 0,9±0,04***^A
- LDL-CS+ VLDL-CS (mongrel male rats; 0.05 mg/kg): 41,7±3,1***^A
- Total CS (mongrel male rats; 0.05 mg/kg): 87,8±2,8*^A
- Triglycerides (mongrel male rats; 0.05 mg/kg): 136,4±9,7
- HDL-CS (mongrel male rats; 0.5 mg/kg): 53,1±6,2*^A
- Kcs (mongrel male rats; 0.5 mg/kg): 0,62±0,05***^A
- LDL-CS+ VLDL-CS (mongrel male rats; 0.5 mg/kg): 33,1±2,9***^A
- Total CS (mongrel male rats; 0.5 mg/kg): 86,2±5,6
- Triglycerides (mongrel male rats; 0.5 mg/kg): 90,0±6,7***^A
- Mean number of metastases [1]: 22.5 ± 0.9
- Metastasizing inhibition percent [1]: 46.4%
- Metastasizing rate in percent [1]: 100%
- Tumor mass [1]: 12.9 ± 0.9 g
- Chemiluminiscence intensity (mV) + σn-1 (superoxide anion-radical; 0.1 mM, control of the series as in the table): 5670 ± 379 mV
- relative effect: 1+/I- (superoxide anion-radical; 1 mM): 0.72
- Chemiluminiscence intensity (mV) + σn-1 (superoxide anion-radical; 1 mM, control of the series 5616 ± 173, 5391 ± 195, 7290 ± 128 or 6776 ± 150): 4027 ± 683 mV
